Test results published in article PMC12388523, “Flavonoids and Sesquiterpene Lactones from Lychnophora ericoides (Arnica-Do-Cerrado) and Their In Vitro Effects on Multiple Myeloma and Acute Myeloid Leukemia” (Metabolites, 2025).

Columns and labels:
Type in all cases: cell-based
[1] = tested on: HL-60 cells; assay: Proliferation, [3H]-thymidine uptake, HL-60; conditions: for mean percentage of proliferation ± SE: 72 h, relative to control
Protocol: (§1) Acute myeloid leukemia cell line HL-60 and multiple myeloma cell lines AMO-1 and KMS-12-PE were obtained from the German Collection of Microorganisms and Cell Cultures (DSMZ), Braunschweig, Germany, and non-tumorigenic stromal cell line HS-5 was acquired from the American Type Culture Collection (ATCC, Manassas, VA, USA). All cell lines were cultured in RPMI 1640 medium without phenol red (Pan Biotech, Aidenbach, Germany), supplemented with 2 mM glutamine, 100 U/mL penicillin, 100 µg/mL streptomycin (Sigma-Aldrich, St. Louis, MO, USA), and 10% fetal bovine serum (FBS Maximus, Catus Biotech GmbH, Tutzing, Germany) at 37 °C in a humidified atmosphere of 5% CO2/95% air. Cells were fed twice weekly. Logarithmically growing cells were resuspended at 1 × 10^5 cells/mL, plated in triplicate in round-bottom 96-well plates (100 µL per well; Falcon, Becton Dickinson, Franklin Lakes, NJ, USA), and incubated at 37 °C in 5% CO2/95% air for 2 h. Subsequently, the compounds were adjusted in the cell culture medium to reach the final concentrations in a total volume of 150 µL and incubated for an additional 72 h. Cell proliferation was assessed by [^3H]-thymidine uptake. Each well was exposed to 2 µCi [^3H]-thymidine (Hartmann Analytic, Braunschweig, Germany) during the final 12–16 h of incubation. Cells were harvested using a semi-automated device, and [^3H]-thymidine incorporation (expressed in counts per minute, cpm) was measured with a scintillation counter (MicroBeta TriLux, PerkinElmer, Waltham, MA, USA). Metabolic activity was assessed by resazurin staining. Resazurin (Carl Roth, Karlsruhe, Germany) was dissolved in distilled water at a concentration of 0.1 mg/mL, and 15 µL of this solution was added to each well, followed by a 2 h incubation at 37 °C. Relative fluorescence units (RFUs) were measured using a Synergy H1 plate reader equipped with a 560 nm excitation/590 nm emission filter set (BioTek; Agilent, Santa Clara, CA, USA). Proliferation and metabolic activity in the absence of compounds were defined as 100% (control), and the values for compound-treated samples were expressed as percentages relative to the control. Selectivity indices were calculated by dividing the IC50 value of each compound against HS-5 cells through the IC50 values against the investigated cell lines.
(§2) The Wilcoxon Rank Sum Test was used to analyze proliferation and metabolic activity in the absence and presence of varying compound concentrations (NCSS 2007 software, version 07.1.2, Kaysville, UT, USA). A p-value < 0.05 was considered statistically significant. IC50 values were calculated using GraphPad Prism 10.1.2. This software reports 95% confidence intervals instead of standard errors. […] Nonetheless, the figures clearly illustrate the IC50 values due to the narrow concentration range tested.

[2] = tested on: AMO-1 cells; assay: Proliferation, [3H]-thymidine uptake, AMO-1; conditions: 72 h, relative to control
Protocol: as §1, §2

[3] = tested on: KMS-12-PE cells; assay: Metabolic activity, resazurin staining, KMS-12-PE; conditions: KMS-12 PE, 72 h, relative to control
Protocol: as §1, §2
(§3) Proliferation inhibition often leads to cell death. Therefore, the cytotoxic activity of the compounds was further evaluated using a modified 3-(4,5-dimethylthiazol-2-yl)-2,5-diphenyltetrazolium bromide (MTT) assay, the resazurin (Alamar Blue) assay. Metabolically active cells reduce the non-fluorescent dye resazurin to the fluorescent dye resorufin via mitochondrial reductase activity, which correlates with cell viability. In the first step the metabolic activity of the four isolated flavonoids was investigated, showing a dose-dependent reduction, but to a much lower extent than in the proliferation assays (Table A2). In fact, only 7,3′,4′-trimethoxymyricetin (2) inhibited the metabolic activity of all four cell lines by more than 50% at a concentration of 100 µM.

[4] = tested on: HL-60 cells; assay: Metabolic activity, resazurin staining, HL-60; conditions: 72 h, relative to control
Protocol: as §1, §2, §3

[5] = tested on: KMS-12-PE cells; assay: Proliferation, [3H]-thymidine uptake, KMS-12-PE; conditions: KMS-12 PE, 72 h, relative to control
Protocol: as §1, §2

[6] = tested on: AMO-1 cells; assay: Metabolic activity, resazurin staining, AMO-1; conditions: for Metabolic activity, mean percentage ± SE: 72 h, relative to control
Protocol: as §1, §2, §3

[7] = tested on: MOLM-13 cells; assay: Metabolic activity, resazurin staining, MOLM-13; conditions: for Metabolic activity, mean percentage ± SE: 72 h, relative to control
Protocol: [The source words this procedure for another cell line and reports this cell line under the same test.] as §1, §2, §3

[8] = tested on: MOLM-13 cells; assay: Proliferation, [3H]-thymidine uptake, MOLM-13; conditions: for mean percentage of proliferation ± SE: 72 h, relative to control
Protocol: [The source words this procedure for another cell line and reports this cell line under the same test.] as §1, §2

Row | SMILES | mean percentage of proliferation ± SE ([1]; HL-60, 25 µM) [%] | mean percentage of proliferation ± SE ([1]; HL-60, 50 µM) [%] | mean percentage of proliferation ± SE ([1]; HL-60, 100 µM) [%] | mean percentage of proliferation ± SE ([2]; AMO-1, 25 µM) [%] | mean percentage of proliferation ± SE ([2]; AMO-1, 50 µM) [%] | mean percentage of proliferation ± SE ([2]; AMO-1, 100 µM) [%] | Metabolic activity, mean percentage ± SE ([3]; 25 µM) [%] | Metabolic activity, mean percentage ± SE ([3]; 50 µM) [%] | Metabolic activity, mean percentage ± SE ([3]; 100 µM) [%] | Metabolic activity, mean percentage ± SE ([4]; HL-60, 25 µM) [%] | Metabolic activity, mean percentage ± SE ([4]; HL-60, 50 µM) [%] | Metabolic activity, mean percentage ± SE ([4]; HL-60, 100 µM) [%] | mean percentage of proliferation ± SE ([5]; 25 µM) [%] | mean percentage of proliferation ± SE ([5]; 50 µM) [%] | mean percentage of proliferation ± SE ([5]; 100 µM) [%] | Metabolic activity, mean percentage ± SE ([6]; AMO-1, 25 µM) [%] | Metabolic activity, mean percentage ± SE ([6]; AMO-1, 50 µM) [%] | Metabolic activity, mean percentage ± SE ([6]; AMO-1, 100 µM) [%] | Metabolic activity, mean percentage ± SE ([7]; MOLM-13, 25 µM) [%] | Metabolic activity, mean percentage ± SE ([7]; MOLM-13, 50 µM) [%] | other results
1 | COc1ccc(-c2cc(=O)c3c(O)cc(O)cc3o2)cc1O [Compound 3, diosmetin] | 71.4 ± 1.5 | 59.9 ± 3.6 | 19.7 ± 3.7 | 65.9 ± 9.4 | 42.0 ± 5.0 | 9.0 ± 0.8 | 93.7 ± 4.9 | 81.3 ± 3.2 | 57.2 ± 4.7 | 93.2 ± 3.1 | 84.5 ± 2.2 | 56.7 ± 3.5 | 74.5 ± 6.9 | 38.2 ± 4.1 | 16.4 ± 2.4 | 95.4 ± 2.4 | 76.8 ± 3.7 | 54.5 ± 5.5 | 62.5 ± 10.1 | 51.2 ± 7.2 | inhibition of metabolic activity ([7]; MOLM-13, 100 µM): induced antimetabolic activity; Metabolic activity, mean percentage ± SE ([7]; MOLM-13, 100 µM): 41.2 ± 5.0 %; mean percentage of proliferation ± SE ([8]; MOLM-13, 25 µM): 36.5 ± 2.9 %; mean percentage of proliferation ± SE ([8]; MOLM-13, 50 µM): 11.7 ± 1.6 %; mean percentage of proliferation ± SE ([8]; MOLM-13, 100 µM): 1.1 ± 0.4 %
2 | COc1cc(O)c2c(=O)c(OC)c(-c3ccc(O)c(O)c3)oc2c1 [Compound 4, 3,7-di-O-methylquercetin] | 37.6 ± 7.7 | 23.3 ± 6.5 | 18.5 ± 4.0 | 57.5 ± 9.2 | 29.7 ± 4.1 | 19.2 ± 5.1 | 103.0 ± 9.9 | 92.4 ± 8.7 | 82.4 ± 7.7 | 80.8 ± 5.9 | 69.8 ± 5.1 | 69.7 ± 5.5 | 80.9 ± 3.2 | 50.4 ± 5.2 | 29.7 ± 6.0 | 70.2 ± 10.8 | 57.1 ± 10.5 | 46.9 ± 11.7 | 77.9 ± 4.3 | 63.6 ± 6.4 | mean percentage of proliferation ± SE ([1]; HL-60, 10 µM): 45.9 ± 8.9 %; inhibition at 10 µM ([1]; Homo sapiens, HL-60, 10 µM): > 50%; mean percentage of proliferation ± SE ([2]; AMO-1, 10 µM): 73.3 ± 11.4 %; Metabolic activity, mean percentage ± SE ([3]; 10 µM): 110.1 ± 10.2%; Metabolic activity, mean percentage ± SE ([4]; HL-60, 10 µM): 86.1 ± 6.1 %; mean percentage of proliferation ± SE ([5]; 10 µM): 89.0 ± 5.2%; Metabolic activity, mean percentage ± SE ([6]; AMO-1, 10 µM): 91.5 ± 9.9%; inhibition of metabolic activity ([6]; AMO-1, 100 µM): induced antimetabolic activity; Metabolic activity, mean percentage ± SE ([7]; MOLM-13, 10 µM): 81.1 ± 4.2 %; Metabolic activity, mean percentage ± SE ([7]; MOLM-13, 100 µM): 61.7 ± 6.9 %; inhibition at 10 µM ([8]; Homo sapiens, MOLM-13, 10 µM): > 50%; mean percentage of proliferation ± SE ([8]; MOLM-13, 10 µM): 42.3 ± 11.2 %; mean percentage of proliferation ± SE ([8]; MOLM-13, 25 µM): 32.6 ± 5.5 %; mean percentage of proliferation ± SE ([8]; MOLM-13, 50 µM): 13.1 ± 2.7 %; mean percentage of proliferation ± SE ([8]; MOLM-13, 100 µM): 8.8 ± 3.1 %
